# Numbers after ± are expanded uncertainties.
# What was measured:
# [1] = molar heat capacity at constant pressure; details: 298.15 K, 101.33 kPa, Small sample (50 mg) DSC
# [2] = Molar enthalpy of transition or fusion; details: Crystal; DSC
# [3] = for mass density: 298.15 K, 101.33 kPa; for Normal melting temperature: DTA
molar heat capacity at constant pressure ([1]; Crystal) [J/K/mol],Molar enthalpy of transition or fusion [2] [kcal/mol],mass density ([3]; Crystal) [kg/m3],Normal melting temperature ([3]; Crystal) [°C],molar heat capacity at constant pressure ([1]; Liquid) [J/K/mol],mass density ([3]; Liquid) [kg/m3],Structure (SMILES)
140.94 ± 6.6,3.71 ± 0.165,1098 ± 5,28.47 ± 0.4,–,–,CC(=O)c1ccco1 [2-acetylfuran]
132.04 ± 6.5,3.37 ± 0.263,–,89.82 ± 0.4,–,–,CC(=O)c1ccc[nH]1 [2-acetylpyrrole]
–,–,–,–,210.72 ± 10,1171 ± 5,CC(=O)c1cccs1 [2-acetylthiophene]

# From the NIST ThermoML archive (doi:10.1016/j.tca.2009.04.012)
